Experimental data: paper PMC12951568, “Identifying Structural Factors Governing the Photodynamic Activity of Phthalocyanines” (Journal of Medicinal Chemistry, 2026)
Read-outs that look alike come from different tables or passages of the source.

How the values were obtained:
[1] = Absorption and fluorescence emission spectra in DMF; type: physicochemical; settings: in DMF
Protocol: An absorption spectrum of 2.475 mL of solvent (water, DMF, or PBS) was taken (i.e., absorption spectrum of baseline); then, 25 μL of stock solution was added to reach the final concentration of 1 μM in the cuvette, and the absorption and emission spectra were taken. Baseline of the solvent was subtracted from the obtained absorption spectrum to get the final absorption spectrum of the sample.

[2] = Fluorescence quantum yield, comparative method; type: physicochemical; settings: in DMF; ZnPc as reference
Protocol: The fluorescence quantum yields (ΦF) were determined by a comparative method with ZnPc as the reference (ΦF = 0.32 in THF). The ΦF values were calculated using the following formula: ϕFS=ϕFR(F^S/F^R)(1−10^−A^R/1−10^−A^S)(η^S/η^R)^2 where F is the integrated area under the emission spectrum and A is the absorbance at the excitation wavelength. Superscripts R and S indicate the reference and sample, respectively. η stands for the refractive index of the solvent. Absorption in the Q-band was kept below 0.05 to eliminate the inner filter effect. Excitation wavelengths were the same as those used for emission spectra (see above). The emission wavelengths were set to their emission maxima to avoid exceeding the detector limit with stimated error ± 15%.

[3] = Fluorescence lifetime in DMF; type: physicochemical
Excerpt: 1 Photophysical Data of Investigated Derivatives in DMF ^a | column: τF1/ns; τF2/ns

[4] = Quantum yield of singlet oxygen production, comparative method with DPBF scavenger; type: physicochemical; settings: in DMF, ZnPc as reference
Protocol: Eight μL of the 100 μM stock solution of the dye in DMF (or DMF + water or water; see above) was added. A xenon lamp (100 W, ozone free XE DC short arc lamp, New port) was used to irradiate the sample while stirring. The incident light was filtered through a water filter (6 cm) and cut off filter OG530 eliminating heat and light under 523 nm, respectively. […] The decrease of DPBF in solution with irradiation time was monitored at 415 nm. The values of ΦΔ of the dyes were calculated by the following equation: φΔS=φΔ[…] is the slope of the plot of the dependence of ln([…] 0 and A t being the absorbances of the DPBF at 415 nm before irradiation and after irradiation time t, respectively. I aT is the total amount of light absorbed by the dye sample. Superscripts R and S indicate the reference and sample, respectively. I aT is calculated as a sum of intensities of the absorbed light I a at wavelengths from 523 to 850 nm (step 0.5 nm). Light under 523 nm is completely filtered by an OG530 filter, and light above 850 nm is not absorbed by the studied dye sample. I a at a given wavelength is calculated using Beer-Lambert'[…]) where I 0 is transmittance of the filter at the given wavelength and A is the absorbance of the dye at this wavelength. All experiments were performed three times, and the data presented is the mean value of the three obtained results with estimated error ± 10%.

[5] = Log P, partition between n-octanol and PBS; type: physicochemical; settings: partition coefficient between 1-octanol and PBS
Protocol: 400 μL portion of n-octanol and 400 μL of PBS buffer were mixed in a plastic Eppendorf vial. Then, 20 μL of the 100 μM stock solution of the sample (see above) was added to this mixture, vortexed for 5 min at rt, and then centrifuged for 10 min (10 000 rpm, rt). 50 μL of each of these layers was taken into 2.5 mL of DMF in a quartz cuvette, and their emission spectra (excitation wavelengths in Table ) were recorded. The log P value was then computed using the area under the curve of the emission spectra of n-octanol (F oct) and PBS buffer (F PBS) layers as follows: logP=log(Foct/FPBS) Triplicate measurements were performed, and the data reported are the mean of the obtained results.

[6] = molecular target: bovine serum albumin (BSA) (Bos taurus, UniProt P02769); assay: Interaction with bovine serum albumin (absorption and emission spectra in PBS); type: binding; settings: 1 μM Pc in PBS, BSA 17.5, 35 and 100 μM
[7] = test system: HeLa (human cervical carcinoma); assay: Photodynamic activity (phototoxicity, neutral red uptake) on HeLa; type: cell-based; settings: HeLa
Protocol: (§1) Detailed in vitro studies involving subcellular localization and determination of the EC50 in three different cell lines (human cervical carcinoma–HeLa, human breast adenocarcinoma–MCF-7, and human skin melanoma–SK-MEL-28) were performed. A broadband light source (ozone-free 450 W Xe-lamp, Newport) equipped with the long-pass filter Schott OG570 was used (12.4 mW/cm^2, 15 min, 11.2 J/cm^2).
(§2) For the cytotoxicity experiments (phototoxicity), cells were seeded at 100 μL per well into 96-well plates (TPP, Switzerland) at a density of 7.5 × 10^3 (HeLa) or 1.0 × 10^4 (MCF-7 and SK-MEL-28) cells per well. Cells were left to grow for 24 h (until they reached confluency) in a controlled environment of a CO2 incubator (37 °C, 5% CO2 atmosphere, constant high humidity). Subsequently, studied compounds were added in a wide concentration range and incubated with the cells for 12 h. Cells were washed; fresh cell culture medium was added, and the cells were irradiated using a 450 W Xe lamp (Newport, USA). The lamp was equipped with a long pass filter (Newport OG570) and an 8 cm water filter (λ > 570 nm, 12.4 mW/cm^2, 15 min, 11.2 J/cm^2). Cellular viability was assessed after an additional 24 h by the neutral red (NR; Sigma, Merck, USA) uptake assay. At least three independent experiments, each in triplicate, were performed. The soluble NR was measured at λ = 540 nm using a Tecan Infinite 200 M plate reader (Tecan, Austria). The viability of each experimental group was expressed as the percentage of the untreated cells (100% viability) after subtraction of the signal from cells treated with a lethal dose of hydrogen peroxide (0% viability). […] EC50 values were calculated, and graphs were created by using GraphPad Prism 10.3.1 (Graph Pad software, USA).

[8] = test system: SK-MEL-28 (human skin melanoma); assay: Photodynamic activity (phototoxicity, neutral red uptake) on SK-MEL-28; type: cell-based; settings: 12 h incubation, Xe-lamp 15 min, λ > 570 nm, 11.2 J/cm^2, mean ± SD, t.w. = this work
Protocol: as §1, §2

[9] = test system: HeLa (human cervical carcinoma); settings: 12 h incubation, Xe-lamp 15 min, λ > 570 nm, 11.2 J/cm^2; mean ± SD; determined previously under the same conditions at the same workplace and published; ref number not given; read-out: EC50 (nM) HeLa; cited from earlier work
[10] = test system: MCF-7 (human breast adenocarcinoma); set-up: method as in number not printed in Table 2; settings: 12 h incubation, Xe-lamp 15 min, λ > 570 nm, 11.2 J/cm^2; mean ± SD; determined previously under the same conditions at the same workplace and published; ref number not given; cited from earlier work
[11] = test system: MCF-7 (human breast adenocarcinoma); assay: Photodynamic activity (phototoxicity, neutral red uptake) on MCF-7; type: cell-based; settings: Homo sapiens, MCF7, light or radiation study; 12 h incubation, Xe-lamp 15 min, λ > 570 nm, 11.2 J/cm^2; mean ± SD; t.w. = this work
Protocol: as §1, §2

bovine serum albumin (BSA), sequence (P02769 25-607): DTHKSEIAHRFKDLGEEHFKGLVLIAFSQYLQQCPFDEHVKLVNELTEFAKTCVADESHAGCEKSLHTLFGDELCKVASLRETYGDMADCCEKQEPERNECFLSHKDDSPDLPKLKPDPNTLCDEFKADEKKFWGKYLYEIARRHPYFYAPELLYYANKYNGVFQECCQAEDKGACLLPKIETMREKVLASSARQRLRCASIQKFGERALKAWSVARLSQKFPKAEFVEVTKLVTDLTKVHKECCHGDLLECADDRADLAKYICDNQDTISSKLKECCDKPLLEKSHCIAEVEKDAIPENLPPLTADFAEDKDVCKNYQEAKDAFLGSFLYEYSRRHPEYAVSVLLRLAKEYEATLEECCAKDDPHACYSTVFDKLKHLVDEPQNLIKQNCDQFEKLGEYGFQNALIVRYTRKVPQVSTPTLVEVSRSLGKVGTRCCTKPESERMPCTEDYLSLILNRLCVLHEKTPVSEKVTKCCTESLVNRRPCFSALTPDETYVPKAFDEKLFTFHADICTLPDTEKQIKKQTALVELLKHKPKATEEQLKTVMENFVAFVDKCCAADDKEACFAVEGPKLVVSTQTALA

logP ([5]; n-octanol/PBS buffer) | SMILES | λF, fluorescence emission maximum [1] | ΦF, fluorescence quantum yield [2] | τF1, fluorescence lifetime (relative amplitude in brackets) [3] | τF2, fluorescence lifetime (relative amplitude in brackets) [3] | ΦΔ, quantum yield of singlet oxygen production [4] | Log P [5] | Interaction with BSA: disaggregation/monomerization and changes in absorption and fluorescence emission spectra [6] | fold higher photodynamic activity vs symmetrical hydrophilic counterparts ([7]; unsymmetrical anionic A1Zn, A2Zn vs A3Zn, A4Zn) | EC50 [8] | EC50 [9] | EC50 [10] | ε, extinction coefficient [1] | λA, absorption maximum in the Q-band [1] | EC50 ([7]; Homo sapiens, light or radiation study, 12 h incubation, Xe-lamp 15 min, λ > 570 nm, 11.2 J/cm^2, mean ± SD, t.w. = this work) | EC50 [11] | EC50 ([8]; Homo sapiens, SK-MEL-28, light or radiation study)
 | O=C([O-])c1cc(Oc2cc3c(cc2Oc2cc(C(=O)[O-])cc(C(=O)[O-])c2)C2=Nc4c5ccccc5c5[n]4[Zn][n]4c(c6ccccc6c4=NC3=N2)=NC2=NC(=N5)c3ccccc32)cc(C(=O)[O-])c1.[Na+].[Na+].[Na+].[Na+] [A1Zn] | 682 nm | 0.035 | 0.44 (15%) ns | 2.51 (85%) ns | 0.26 | –2.70 | complete | ~21 | 530 ± 30 nM | 290 ± 78 nM | 453 ± 26 nM |  |  |  |  | 
 | Cc1cc(Cn2cc[n+](C)c2)c(Oc2c3c(c(C)c(C)[n+]2C)C2=NC3=Nc3c4cc(SC(C)(C)C)c(SC(C)(C)C)cc4c4[n]3[Zn][n]3c(c5cc(SC(C)(C)C)c(SC(C)(C)C)cc5c3=N2)=NC2=NC(=N4)c3cc(SC(C)(C)C)c(SC(C)(C)C)cc32)c(Cn2cc[n+](C)c2)c1.[I-].[I-].[I-] [C2Zn] | 718 nm | 0.30 | 1.67 ns |  | 0.70 | 1.38 |  |  | 62 ± 11 nM | 105 ± 34 nM | 65 ± 8 nM | 177 880 M^–1cm^–1 | 708 nm |  |  | 
 | Cc1cc(Cn2c[n+](C)cn2)c(Oc2cc3c(cc2Oc2c(Cn4c[n+](C)cn4)cc(C)cc2Cn2c[n+](C)cn2)C2=Nc4c5cc(Oc6c(Cn7c[n+](C)cn7)cc(C)cc6Cn6c[n+](C)cn6)c(Oc6c(Cn7c[n+](C)cn7)cc(C)cc6Cn6c[n+](C)cn6)cc5c5[n]4[Zn][n]4c(c6cc(Oc7c(Cn8c[n+](C)cn8)cc(C)cc7Cn7c[n+](C)cn7)c(Oc7c(Cn8c[n+](C)cn8)cc(C)cc7Cn7c[n+](C)cn7)cc6c4=NC4=NC(=N5)c5cc(Oc6c(Cn7c[n+](C)cn7)cc(C)cc6Cn6c[n+](C)cn6)c(Oc6c(Cn7c[n+](C)cn7)cc(C)cc6Cn6c[n+](C)cn6)cc54)=NC3=N2)c(Cn2c[n+](C)cn2)c1.[I-].[I-].[I-].[I-].[I-].[I-].[I-].[I-].[I-].[I-].[I-].[I-].[I-].[I-].[I-].[I-] [C13Zn] | 687 nm | 0.20 | 0.60 (4%) ns | 2.27 (96%) ns | 0.37 | –3.47 |  |  | 56 ± 6 nM | 12 ± 4 nM | 5.3 ± 0.8 nM | 236 490 M^–1cm^–1 | 679 nm |  |  | 
-1.35 | O=S(=O)([O-])c1ccc2c(c1)-c1nc-2nc2[nH]c(nc3nc(nc4[nH]c(n1)c1ccccc41)-c1ccc(S(=O)(=O)[O-])cc1-3)c1ccc(S(=O)(=O)[O-])cc21.[Na+].[Na+].[Na+] [A9H] | 703 nm | 0.22 | 1.97 (18%) ns | 3.87 (82%) ns | 0.19 |  | partial |  |  |  |  | 104 650 M^–1cm^–1 |  | 85 ± 7 nM | 347 ± 125 nM | 300 ± 77 nM
 | CSc1cc2c(cc1SC)C1=Nc3c4cc(SC)c(SC)cc4c4[n]3[Zn][n]3c(c5cc(SC)c(SC)cc5c3=NC2=N1)=NC1=NC(=N4)c2cc(Oc3c(Cn4cc[n+](C)c4)cc(C)cc3Cn3cc[n+](C)c3)c(Oc3c(Cn4cc[n+](C)c4)cc(C)cc3Cn3cc[n+](C)c3)cc21.[I-].[I-].[I-].[I-] [C4Zn] | 709 nm | 0.21 |  |  | 0.44 | 0.62 |  |  | 108 ± 24 nM | 79 ± 20 nM | 61 ± 9 nM | 106 360 M^–1cm^–1 | 697 nm |  |  | 
